The source made the active and inactive calls. For most assays here, no stated cut-off is given here; in the data, actives have a measured Kd and inactives only a lower limit.
Columns and labels:
[1] = target: T1, Serine/threonine-protein kinase STK11 (Homo sapiens, UniProt Q15831)
T1 sequence (Q15831 whole entry): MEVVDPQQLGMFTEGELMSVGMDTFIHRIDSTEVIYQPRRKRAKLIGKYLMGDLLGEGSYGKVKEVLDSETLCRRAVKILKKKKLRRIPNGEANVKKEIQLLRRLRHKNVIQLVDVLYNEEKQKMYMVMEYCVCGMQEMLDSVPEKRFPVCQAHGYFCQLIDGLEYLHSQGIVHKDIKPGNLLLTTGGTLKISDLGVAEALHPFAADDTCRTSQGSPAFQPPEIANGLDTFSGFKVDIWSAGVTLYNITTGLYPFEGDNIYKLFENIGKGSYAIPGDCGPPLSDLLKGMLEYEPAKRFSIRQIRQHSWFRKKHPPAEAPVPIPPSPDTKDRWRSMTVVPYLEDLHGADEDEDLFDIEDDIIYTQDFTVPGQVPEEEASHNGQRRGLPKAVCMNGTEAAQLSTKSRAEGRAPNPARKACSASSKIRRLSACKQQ

[2] = target: Putative heat shock protein HSP 90-beta 2 (Homo sapiens, UniProt Q58FF8)
Chain of Putative heat shock protein HSP 90-beta 2 (Q58FF8 whole entry): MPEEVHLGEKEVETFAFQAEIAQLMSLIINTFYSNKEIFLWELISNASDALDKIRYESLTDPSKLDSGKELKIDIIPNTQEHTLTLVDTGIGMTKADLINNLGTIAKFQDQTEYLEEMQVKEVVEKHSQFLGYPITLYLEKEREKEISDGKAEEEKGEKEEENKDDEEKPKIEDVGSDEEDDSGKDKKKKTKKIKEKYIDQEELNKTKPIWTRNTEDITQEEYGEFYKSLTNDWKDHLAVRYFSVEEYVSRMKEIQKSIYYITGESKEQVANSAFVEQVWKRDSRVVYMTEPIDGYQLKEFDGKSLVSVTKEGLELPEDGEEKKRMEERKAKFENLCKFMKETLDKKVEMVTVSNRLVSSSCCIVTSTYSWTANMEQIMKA

[3] = target: T2, Interleukin-1 receptor-associated kinase 3 (Homo sapiens, UniProt Q9Y616)
T2 sequence (Q9Y616 whole entry): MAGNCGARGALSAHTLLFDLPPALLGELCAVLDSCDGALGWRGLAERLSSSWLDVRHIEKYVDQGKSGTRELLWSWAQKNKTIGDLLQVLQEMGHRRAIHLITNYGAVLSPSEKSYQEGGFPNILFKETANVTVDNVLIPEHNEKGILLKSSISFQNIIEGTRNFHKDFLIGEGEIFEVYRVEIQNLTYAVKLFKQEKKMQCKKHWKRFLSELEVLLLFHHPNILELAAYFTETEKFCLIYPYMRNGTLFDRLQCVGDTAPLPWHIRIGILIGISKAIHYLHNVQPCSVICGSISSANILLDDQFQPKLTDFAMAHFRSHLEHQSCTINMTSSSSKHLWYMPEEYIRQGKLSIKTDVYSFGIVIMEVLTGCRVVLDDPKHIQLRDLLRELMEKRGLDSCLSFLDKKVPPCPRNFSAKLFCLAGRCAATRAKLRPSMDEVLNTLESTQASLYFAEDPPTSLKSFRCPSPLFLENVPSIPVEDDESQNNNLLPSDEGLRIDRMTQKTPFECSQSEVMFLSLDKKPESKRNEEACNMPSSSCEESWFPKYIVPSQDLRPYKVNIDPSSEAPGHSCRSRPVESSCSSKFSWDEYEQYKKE

[4] = target: Interleukin-1 receptor-associated kinase 1 (Homo sapiens, UniProt P51617)
[5] = target: Cyclin-dependent kinase 13 (Homo sapiens, UniProt Q14004)
Chain of Cyclin-dependent kinase 13 (Q14004 whole entry): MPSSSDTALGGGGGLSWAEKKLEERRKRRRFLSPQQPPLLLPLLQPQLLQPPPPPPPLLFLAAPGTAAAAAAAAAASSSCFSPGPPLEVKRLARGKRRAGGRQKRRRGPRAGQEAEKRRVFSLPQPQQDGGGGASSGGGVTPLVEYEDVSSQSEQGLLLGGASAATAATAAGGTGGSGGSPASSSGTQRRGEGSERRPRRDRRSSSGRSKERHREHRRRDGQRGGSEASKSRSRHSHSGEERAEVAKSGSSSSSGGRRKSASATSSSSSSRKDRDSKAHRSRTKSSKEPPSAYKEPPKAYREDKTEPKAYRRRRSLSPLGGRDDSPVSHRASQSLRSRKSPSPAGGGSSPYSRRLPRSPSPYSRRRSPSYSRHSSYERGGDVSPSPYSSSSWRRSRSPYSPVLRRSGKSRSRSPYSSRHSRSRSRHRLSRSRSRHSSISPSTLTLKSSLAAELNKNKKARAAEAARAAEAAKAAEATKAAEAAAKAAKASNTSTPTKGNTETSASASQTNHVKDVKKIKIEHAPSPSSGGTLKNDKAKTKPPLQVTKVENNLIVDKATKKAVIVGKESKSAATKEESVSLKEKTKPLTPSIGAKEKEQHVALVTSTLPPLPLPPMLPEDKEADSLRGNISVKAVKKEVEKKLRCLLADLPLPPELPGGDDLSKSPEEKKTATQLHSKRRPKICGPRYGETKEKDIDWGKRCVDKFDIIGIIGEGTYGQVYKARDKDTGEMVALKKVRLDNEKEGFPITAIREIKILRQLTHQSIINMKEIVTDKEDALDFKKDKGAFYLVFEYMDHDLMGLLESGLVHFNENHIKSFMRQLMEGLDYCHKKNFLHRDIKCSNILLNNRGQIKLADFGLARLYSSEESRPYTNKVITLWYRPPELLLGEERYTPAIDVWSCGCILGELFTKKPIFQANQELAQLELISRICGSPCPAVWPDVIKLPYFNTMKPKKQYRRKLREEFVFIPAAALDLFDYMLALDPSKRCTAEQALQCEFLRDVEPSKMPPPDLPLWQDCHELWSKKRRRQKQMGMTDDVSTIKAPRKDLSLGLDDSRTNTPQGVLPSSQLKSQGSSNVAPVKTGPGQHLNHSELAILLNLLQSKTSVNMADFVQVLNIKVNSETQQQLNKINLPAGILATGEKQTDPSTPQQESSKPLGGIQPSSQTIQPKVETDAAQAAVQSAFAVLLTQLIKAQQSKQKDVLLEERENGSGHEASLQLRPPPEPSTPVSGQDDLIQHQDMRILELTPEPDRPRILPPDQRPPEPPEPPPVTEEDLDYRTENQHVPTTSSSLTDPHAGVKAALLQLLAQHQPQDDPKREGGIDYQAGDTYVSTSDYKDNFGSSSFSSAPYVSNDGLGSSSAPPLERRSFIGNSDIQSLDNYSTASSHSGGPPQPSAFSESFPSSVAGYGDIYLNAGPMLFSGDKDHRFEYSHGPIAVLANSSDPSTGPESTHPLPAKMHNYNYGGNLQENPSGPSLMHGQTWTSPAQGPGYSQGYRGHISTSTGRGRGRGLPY

[6] = target: Structural maintenance of chromosomes protein 2 (Homo sapiens, UniProt O95347)
[7] = target: Serine/threonine-protein kinase N1 (Homo sapiens, UniProt Q16512)
[8] = target: Tyrosine-protein kinase ABL2 (Homo sapiens, UniProt P42684)
Chain of Tyrosine-protein kinase ABL2 (P42684 whole entry): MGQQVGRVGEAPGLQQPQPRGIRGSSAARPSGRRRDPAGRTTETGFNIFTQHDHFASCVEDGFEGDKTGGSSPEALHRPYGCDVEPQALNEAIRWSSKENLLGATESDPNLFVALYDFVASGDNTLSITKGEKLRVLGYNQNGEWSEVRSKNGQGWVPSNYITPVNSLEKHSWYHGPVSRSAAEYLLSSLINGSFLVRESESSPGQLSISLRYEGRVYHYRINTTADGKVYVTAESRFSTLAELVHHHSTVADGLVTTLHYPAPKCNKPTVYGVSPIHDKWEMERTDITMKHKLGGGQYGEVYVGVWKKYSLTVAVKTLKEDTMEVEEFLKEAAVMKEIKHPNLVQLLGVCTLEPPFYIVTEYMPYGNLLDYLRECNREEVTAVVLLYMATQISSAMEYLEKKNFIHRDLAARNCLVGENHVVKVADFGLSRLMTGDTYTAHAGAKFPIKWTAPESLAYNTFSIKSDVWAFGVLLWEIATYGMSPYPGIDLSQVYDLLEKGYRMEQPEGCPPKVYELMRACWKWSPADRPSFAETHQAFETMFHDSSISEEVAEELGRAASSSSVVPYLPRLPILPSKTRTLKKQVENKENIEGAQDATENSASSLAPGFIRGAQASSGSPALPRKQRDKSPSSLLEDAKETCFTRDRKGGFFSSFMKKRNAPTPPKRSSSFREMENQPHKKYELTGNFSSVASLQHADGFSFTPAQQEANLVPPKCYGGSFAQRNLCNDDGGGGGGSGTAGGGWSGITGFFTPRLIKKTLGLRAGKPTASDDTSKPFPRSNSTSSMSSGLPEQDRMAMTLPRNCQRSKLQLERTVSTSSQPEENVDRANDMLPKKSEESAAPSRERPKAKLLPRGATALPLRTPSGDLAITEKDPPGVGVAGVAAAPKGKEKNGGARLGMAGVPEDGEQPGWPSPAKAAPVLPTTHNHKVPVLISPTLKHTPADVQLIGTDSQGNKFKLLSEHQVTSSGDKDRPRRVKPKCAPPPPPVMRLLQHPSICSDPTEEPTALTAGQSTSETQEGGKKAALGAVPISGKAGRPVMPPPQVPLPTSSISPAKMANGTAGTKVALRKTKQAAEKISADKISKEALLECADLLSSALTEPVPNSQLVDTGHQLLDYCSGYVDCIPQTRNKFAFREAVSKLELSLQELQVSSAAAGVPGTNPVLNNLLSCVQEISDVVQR

[9] = target: Ras-related protein Rab-6A (Homo sapiens, UniProt P20340)
Chain of Ras-related protein Rab-6A (P20340 whole entry): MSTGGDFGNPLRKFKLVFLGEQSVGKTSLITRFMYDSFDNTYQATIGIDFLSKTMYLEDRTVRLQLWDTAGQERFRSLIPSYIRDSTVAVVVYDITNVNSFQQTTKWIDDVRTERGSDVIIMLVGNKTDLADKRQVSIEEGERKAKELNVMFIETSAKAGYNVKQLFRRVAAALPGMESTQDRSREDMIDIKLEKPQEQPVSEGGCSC

[10] = target: Protein-tyrosine kinase 2-beta (Homo sapiens, UniProt Q14289)
[11] = target: Serine/threonine-protein kinase 26 (Homo sapiens, UniProt Q9P289)
Chain of Serine/threonine-protein kinase 26 (Q9P289 whole entry): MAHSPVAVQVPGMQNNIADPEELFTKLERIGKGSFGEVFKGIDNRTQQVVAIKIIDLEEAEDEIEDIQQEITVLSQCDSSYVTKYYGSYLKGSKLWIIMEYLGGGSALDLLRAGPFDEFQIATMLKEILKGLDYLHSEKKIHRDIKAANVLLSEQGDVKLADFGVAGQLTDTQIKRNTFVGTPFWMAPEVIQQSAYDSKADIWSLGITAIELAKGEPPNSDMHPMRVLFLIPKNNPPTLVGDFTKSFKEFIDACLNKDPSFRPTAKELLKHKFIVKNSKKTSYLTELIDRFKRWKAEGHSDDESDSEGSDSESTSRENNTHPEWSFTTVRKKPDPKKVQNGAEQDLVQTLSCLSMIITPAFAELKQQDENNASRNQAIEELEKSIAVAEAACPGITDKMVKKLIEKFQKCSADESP

Ephrin type-B receptor 4 = target: T3, Ephrin type-B receptor 4 (Homo sapiens, UniProt P54760)
T3 sequence (P54760 whole entry): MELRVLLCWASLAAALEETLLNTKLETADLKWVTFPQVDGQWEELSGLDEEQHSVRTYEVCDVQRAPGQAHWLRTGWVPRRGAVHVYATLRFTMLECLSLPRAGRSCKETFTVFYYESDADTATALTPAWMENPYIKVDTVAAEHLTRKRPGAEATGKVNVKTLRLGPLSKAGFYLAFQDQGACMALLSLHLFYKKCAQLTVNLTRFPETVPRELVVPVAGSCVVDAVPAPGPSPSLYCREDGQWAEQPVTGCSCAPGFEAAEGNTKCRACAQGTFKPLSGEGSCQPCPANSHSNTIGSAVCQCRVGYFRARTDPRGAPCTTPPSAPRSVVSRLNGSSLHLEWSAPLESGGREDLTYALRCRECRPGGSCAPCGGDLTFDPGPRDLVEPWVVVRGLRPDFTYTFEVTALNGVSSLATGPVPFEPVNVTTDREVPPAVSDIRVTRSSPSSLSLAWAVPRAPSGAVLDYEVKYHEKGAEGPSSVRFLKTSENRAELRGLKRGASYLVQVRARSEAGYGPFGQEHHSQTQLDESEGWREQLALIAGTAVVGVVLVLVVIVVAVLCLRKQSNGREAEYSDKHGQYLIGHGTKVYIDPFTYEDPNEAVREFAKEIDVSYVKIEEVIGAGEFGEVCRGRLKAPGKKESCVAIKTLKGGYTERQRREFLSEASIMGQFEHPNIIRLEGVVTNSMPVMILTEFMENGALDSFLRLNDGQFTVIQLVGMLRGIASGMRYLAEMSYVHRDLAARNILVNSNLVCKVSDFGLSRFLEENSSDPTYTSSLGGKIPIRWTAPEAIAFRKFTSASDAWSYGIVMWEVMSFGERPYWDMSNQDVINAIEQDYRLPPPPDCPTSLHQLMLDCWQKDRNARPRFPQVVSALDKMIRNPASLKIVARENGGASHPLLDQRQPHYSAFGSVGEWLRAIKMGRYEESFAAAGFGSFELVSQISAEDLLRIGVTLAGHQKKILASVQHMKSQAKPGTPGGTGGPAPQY

Ephrin type-A receptor 2 = Ephrin type-A receptor 2 (Homo sapiens, UniProt P29317)
Chain of Ephrin type-A receptor 2 (P29317 whole entry): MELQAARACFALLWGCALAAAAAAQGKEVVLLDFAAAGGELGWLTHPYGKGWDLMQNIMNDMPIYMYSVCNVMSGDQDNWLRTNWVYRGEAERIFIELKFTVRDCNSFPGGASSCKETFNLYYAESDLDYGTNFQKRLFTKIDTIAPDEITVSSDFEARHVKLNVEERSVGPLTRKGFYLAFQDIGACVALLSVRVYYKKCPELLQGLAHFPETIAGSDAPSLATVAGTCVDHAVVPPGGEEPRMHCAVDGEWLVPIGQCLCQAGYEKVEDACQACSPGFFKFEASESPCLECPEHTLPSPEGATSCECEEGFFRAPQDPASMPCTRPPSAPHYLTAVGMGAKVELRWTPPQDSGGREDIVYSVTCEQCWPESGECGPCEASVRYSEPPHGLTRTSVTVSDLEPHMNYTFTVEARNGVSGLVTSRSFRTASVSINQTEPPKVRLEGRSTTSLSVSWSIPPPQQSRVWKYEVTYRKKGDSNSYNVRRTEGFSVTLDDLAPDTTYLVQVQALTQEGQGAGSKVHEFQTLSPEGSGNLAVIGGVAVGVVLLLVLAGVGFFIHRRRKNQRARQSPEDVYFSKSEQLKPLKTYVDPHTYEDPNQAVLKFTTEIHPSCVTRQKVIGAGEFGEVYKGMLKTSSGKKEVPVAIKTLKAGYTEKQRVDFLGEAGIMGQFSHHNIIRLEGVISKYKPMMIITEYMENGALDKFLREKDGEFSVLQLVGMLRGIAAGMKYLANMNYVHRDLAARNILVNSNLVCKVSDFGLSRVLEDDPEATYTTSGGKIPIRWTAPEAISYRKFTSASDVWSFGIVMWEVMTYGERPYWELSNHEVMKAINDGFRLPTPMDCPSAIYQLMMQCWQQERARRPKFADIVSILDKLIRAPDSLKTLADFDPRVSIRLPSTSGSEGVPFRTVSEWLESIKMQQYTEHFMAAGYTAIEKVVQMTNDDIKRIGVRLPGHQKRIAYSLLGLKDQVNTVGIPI

[12] = target: T4, Dual specificity mitogen-activated protein kinase kinase 6 (Homo sapiens, UniProt P52564)
T4 sequence (P52564 whole entry): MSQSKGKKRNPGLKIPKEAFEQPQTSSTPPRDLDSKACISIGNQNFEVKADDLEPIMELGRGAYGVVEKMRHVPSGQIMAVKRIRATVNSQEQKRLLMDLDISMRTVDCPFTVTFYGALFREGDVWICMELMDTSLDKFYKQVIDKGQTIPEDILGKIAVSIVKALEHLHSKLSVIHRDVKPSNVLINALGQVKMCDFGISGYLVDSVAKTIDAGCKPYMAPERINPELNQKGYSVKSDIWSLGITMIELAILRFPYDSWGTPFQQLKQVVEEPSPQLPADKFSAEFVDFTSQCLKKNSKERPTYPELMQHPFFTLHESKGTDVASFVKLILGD

Row | Structure (SMILES) | Kd [1] | Kd [2] | Kd [3] | Kd [4] | Kd [5] | Kd [6] | Kd [7] | Kd [8] | Kd [9] | Kd [10] | Kd [11] | Kd (Ephrin type-B receptor 4) | Kd (Ephrin type-A receptor 2) | Kd [12]
1 | COc1cc(F)c(F)c(Nc2ccc(I)cc2F)c1NS(=O)(=O)C1(C[C@H](O)CO)CC1 [REFAMETINIB] | > 30 µM (inactive) | > 30 µM (inactive) | > 30 µM (inactive) | > 30 µM (inactive) | > 30 µM (inactive) | > 30 µM (inactive) | > 30 µM (inactive) | > 30 µM (inactive) | > 30 µM (inactive) | > 30 µM (inactive) | > 30 µM (inactive) | > 30 µM (inactive) | > 30 µM (inactive) | > 30 µM (inactive)
2 | COCCN1CCN(Cc2ccc(-c3n[nH]c4c3C(=O)c3c(NC(=O)NN5CCOCC5)cccc3-4)cc2)CC1 [RGB-286638] | > 30 µM (inactive) | > 30 µM (inactive) | > 30 µM (inactive) | > 30 µM (inactive) | 1.01 µM (active) | > 30 µM (inactive) | > 30 µM (inactive) | > 30 µM (inactive) | > 30 µM (inactive) | > 30 µM (inactive) | 1.05 µM (active) | > 30 µM (inactive) | > 30 µM (inactive) | 1.95 µM (active)
3 | C=CC(=O)Nc1cccc(Nc2nc(Nc3ccc(N4CCN(C(C)=O)CC4)cc3OC)ncc2C(F)(F)F)c1 [ROCILETINIB] | > 30 µM (inactive) | > 30 µM (inactive) | > 30 µM (inactive) | > 30 µM (inactive) | > 30 µM (inactive) | > 30 µM (inactive) | > 30 µM (inactive) | > 30 µM (inactive) | > 30 µM (inactive) | > 30 µM (inactive) | > 30 µM (inactive) | > 30 µM (inactive) | > 30 µM (inactive) | > 30 µM (inactive)
4 | O=C(O)c1ccc2c(c1)nc(Nc1cccc(Cl)c1)c1ccncc12 [SILMITASERTIB] | > 30 µM (inactive) | > 30 µM (inactive) | > 30 µM (inactive) | > 30 µM (inactive) | > 30 µM (inactive) | > 30 µM (inactive) | 20.4 µM (active) | > 30 µM (inactive) | > 30 µM (inactive) | > 30 µM (inactive) | 1.71 µM | > 30 µM (inactive) | > 30 µM (inactive) | > 30 µM (inactive)
5 | CN1CCN(c2nc(C3=C(c4c[nH]c5ccccc45)C(=O)NC3=O)c3ccccc3n2)CC1 [SOTRASTAURIN] | > 30 µM (inactive) | > 30 µM (inactive) | > 30 µM (inactive) | > 30 µM (inactive) | > 30 µM (inactive) | > 30 µM (inactive) | 2.95 µM | > 30 µM (inactive) | > 30 µM (inactive) | > 30 µM (inactive) | > 30 µM (inactive) | > 30 µM (inactive) | > 30 µM (inactive) | > 30 µM (inactive)
6 | CC(C)(O)CC(=O)NCCn1ccc2ncnc(Nc3ccc(Oc4cccc(C(F)(F)F)c4)c(Cl)c3)c21 [TAK-285] | > 30 µM (inactive) | > 30 µM (inactive) | > 30 µM (inactive) | > 30 µM (inactive) | > 30 µM (inactive) | > 30 µM (inactive) | > 30 µM (inactive) | > 30 µM (inactive) | > 30 µM (inactive) | > 30 µM (inactive) | > 30 µM (inactive) | > 30 µM (inactive) | > 30 µM (inactive) | > 30 µM (inactive)
7 | Cc1cc(C(=O)Nc2cc(Oc3ccc4nc(NC(=O)C5CC5)cn4n3)ccc2C)n(C)n1 [TAK-593] | > 30 µM (inactive) | > 30 µM (inactive) | > 30 µM (inactive) | > 30 µM (inactive) | > 30 µM (inactive) | > 30 µM (inactive) | > 30 µM (inactive) | 4.06 µM (active) | > 30 µM (inactive) | > 30 µM (inactive) | > 30 µM (inactive) | > 30 µM (inactive) | > 30 µM (inactive) | > 30 µM (inactive)
8 | Cn1c(=O)c(F)c(Nc2ccc(I)cc2F)c2c(=O)n(C[C@@H](O)CO)cnc21 [TAK-733] | > 30 µM (inactive) | > 30 µM (inactive) | > 30 µM (inactive) | > 30 µM (inactive) | > 30 µM (inactive) | > 30 µM (inactive) | > 30 µM (inactive) | > 30 µM (inactive) | > 30 µM (inactive) | > 30 µM (inactive) | > 30 µM (inactive) | > 30 µM (inactive) | > 30 µM (inactive) | > 30 µM (inactive)
9 | O[C@H]1CC[C@H](Nc2ncc3nc(Nc4c(F)cc(F)cc4F)n([C@H]4CCOC4)c3n2)CC1 [TANZISERTIB] | > 30 µM (inactive) | > 30 µM (inactive) | > 30 µM (inactive) | > 30 µM (inactive) | > 30 µM (inactive) | > 30 µM (inactive) | > 30 µM (inactive) | > 30 µM (inactive) | > 30 µM (inactive) | > 30 µM (inactive) | > 30 µM (inactive) | > 30 µM (inactive) | > 30 µM (inactive) | > 30 µM (inactive)
10 | CNC(=O)c1cc(COc2nnc(Nc3ccc(Cl)cc3)c3ccoc23)ccn1 [TELATINIB] | > 30 µM (inactive) | > 30 µM (inactive) | > 30 µM (inactive) | > 30 µM (inactive) | > 30 µM (inactive) | > 30 µM (inactive) | > 30 µM (inactive) | > 30 µM (inactive) | > 30 µM (inactive) | > 30 µM (inactive) | > 30 µM (inactive) | > 30 µM (inactive) | > 30 µM (inactive) | > 30 µM (inactive)

From ChEMBL document CHEMBL3991601, “The target landscape of clinical kinase drugs” (Science, 2017)
